# Test results reported in EP3097904A1, “DEPIGMENTING AGENTS TO LIGHTEN THE SKIN” (priority 2015, dated 2016).
# Columns and labels:
# [1] = tested on: normal murine melanocytes; test: Melanin content in normal murine melanocytes (basal); format: cell-based; conditions: 48 hours; for melanin content: increasing doses, expressed as percentage of control (Figures 1, 2)
# Protocol: (§1) Normal murine melanocytes were seeded and treated for 48 hours with increasing doses of umbelliprenin, 100µM of kojic acid (KA) or carrier solvent (DMSO). […] The cell pellet was washed twice with phosphate buffer saline, transferred in an Eppendorf vial and centrifuged at 5000 g for 5 minutes at 4°C. The supernatant was discarded. 200 µL of water and 1 mL of EtOH/Ether (1/1) were added to precipitate melanin. The mixture was incubated for 15 minutes at room temperature, centrifuged at 5000 g for 5 minutes and the supernatant was discarded. The precipitate was solubilized by 300 µL of a mixture of aqueous sodium hydroxide (1 M)/DMSO 90/10 after heating at 80°C for 1 hour. The absorbance was measured at 405 nm. The melanin content was expressed as a percentage of control (=100%).
# Normal murine melanocytes were seeded and treated for 48 hours with increasing doses of PBPE, tesmilifene (Tes) or carrier solvent (ethanol).
# Normal murine melanocytes were seeded and treated for 48 hours with fixed doses of PBPE, tesmilifene, umbelliprenin or a combination of those, or carrier solvent (DMSO for umbelliprenin, ethanol for tesmilifene or PBPE and EtOH/DMSO 1/1 for the combination).
# (§2) The cell pellet was washed twice with phosphate buffer saline, transferred in an Eppendorf vial and centrifuged at 5000 g for 5 minutes at 4°C. The supernatant was discarded. Cell lysis was performed with an aqueous solution of sodium deoxycholate 0.5% (1 mL per cell pellet). The suspension was incubated at 0°C for 15 minutes and then 3 mL of a freshly prepared solution of L-DOPA (0.1% w/w) in phosphate buffer at 0.1 M (pH 6.8) was added to the cell lysate. The mixture was incubated at 37°C for 10 min. Tyrosinase activity was measured with a spectrophotometer to quantify the oxidation of L-DOPA to DOPAchrome. The absorbance was measured at 475 nm. The tyrosinase activity was expressed as a percentage of control (=100%). Control corresponds to the tyrosinase activity measured in the cell lysate from normal murine melanocytes treated with carrier solvent.
# [2] = tested on: normal murine melanocytes treated with alpha melanocyte stimulating hormone (α-MSH); test: Melanin content in melanocytes treated with α-MSH; format: cell-based; conditions: 48 hours, α-MSH 100 nM; PBPE 20 µM, tesmilifene 10 µM, umbelliprenin 40 µM (Figure 3)
# Protocol: as §1
# [3] = tested on: normal murine melanocytes exposed to ultraviolet (UV-B) irradiation; test: Melanin content in melanocytes exposed to UV-B irradiation; format: cell-based; conditions: UV-B 20 mJ/cm^2; PBPE 20 µM, tesmilifene 10 µM, umbelliprenin 40 µM (Figure 4)
# Protocol: as §1
# Tyrosinase = Tyrosinase activity in lysates of treated melanocytes (L-DOPA oxidation); format: cell-based, murine; conditions: 48 hours; PBPE 20 µM, tesmilifene 10 µM, umbelliprenin 40 µM; cell lysate, percentage of control (Figure 6)
# Protocol: as §2, with “Tyrosinase activity was measured using a previously reported procedure (Ando H, J. Lipid Res., 1999, 40, p. 1312). […] The cell” for “The cell”, “carrier solvent. Melanin content of treated murine melanocytes was also measured as described in example 4.” for “carrier solvent.”
# [4] = tested on: melanogenic genes (Tyrosinase, Mitf, TRP-1 and TRP-2); test: Expression of genes encoding melanogenic proteins (RT-qPCR); format: cell-based, murine; conditions: 48 hours; PBPE 20 µM, tesmilifene 10 µM, umbelliprenin 40 µM (Figure 8)
# Protocol: We then performed RNA extraction. We added Trizol® (1 ml) on treated cells. After incubation (5 minutes at room temperature), we transferred the cells suspension into Eppendorf vial. Chloroform (200 µl at 4°C) was added, the mixture was manually stirred for 15 seconds, incubated for 5 minutes at room temperature and then centrifuged at 16000 g for 10 minutes at 4°C. Aqueous colorless layer was collected and isopropanol (500 µL at -20°C) was added. The mixture was manually stirred for 15 seconds, incubated for 15 minutes at room temperature and the centrifuged at 16200 g for 10 minutes at 4°C. The supernatant was discarded and the precipitate was washed with 1 mL of EtOH/H2O (3/1) at -20°C. The mixture was centrifuged at 16000 g for 10 minutes at 4°C, the supernatant discarded and the pellet was allowed to dry for 10 minutes at room temperature. The pellet was dissolved in RNAse-free water (30 µL). The amount and purity of RNA was determined by measuring the absorbance at 230, 260 and 280 nm with a nanodrop ND-1000 spectrophotometer (Thermo Scientific) according to the manufacturer's instructions.
# We then performed RT-qPCR experiment. We prepared a mixture containing RNA (1 µg), reverse transcriptase (1 µL), the reaction mixture « iScript®5x » (4 µL) and RNAse-free water (qsp 20 µl). The mixture was vortexed, centrifuged for few seconds and then introduced into a thermocycler. Reverse transcription was performed using the following program : 5 min at 25°C, 30 min at 42°C and then 5 min at 85°C. Eppendorf vial was maintained at 4°C until the beginning of the qPCR experiment. We then examined the expression of melanogenic genes (Tyrosinase, Mitf, TRP-1 and TRP-2) and housekeeping genes (glyceraldehyde 3-phosphate dehydrogenase and Cyclophiline A1) by qPCR. For this purpose, cDNA was diluted with RNAse-free water (180 µL) and then we prepared a mixture containing: primers, Syber Green® and RNAse-free water. We mixed in a 96-well plate cDNA (5 µL) and the mixture (20 µL). […]
# [5] = tested on: normal murine melanocytes; test: Cytotoxicity, trypan blue cell viability; conditions: 24, 48 and 72 hours; PBPE 20 µM, tesmilifene 10 µM, umbelliprenin 40 µM (Figure 9)
# Protocol: Normal murine melanocytes were seeded and treated for 24, 48 and 72 hours with PBPE (20 µM), tesmilifene (10 µM), umbelliprenin (40 µM) or carrier solvent (DMSO for umbelliprenin and ethanol for tesmilifene or PBPE). Cells were detached by trypsinization, collected in phosphate buffer saline and centrifuged at 1500 rpm for 5 minutes at 4°C. Cells pellets were resuspended in the trypan blue solution (0.25%, w/v in PBS) and counted in a Malassez cell under a light microscope. The percentage of cell viability was calculated using the following formula: % cell viability = [1-(blue cells/total cells)] x 100 [formula]
# [6] = tested on: normal murine melanocytes; test: Whitening effect on melanocyte cell pellet (photograph); format: cell-based; conditions: umbelliprenin 40 µM, 48 hours (Figure 7)
# Protocol: Normal murine melanocytes were seeded and treated for 48 hours with umbelliprenin (40 µM) or carrier solvent (DMSO). […] Cells pellet was washed with phosphate buffer saline, centrifuged and the supernatant was discarded. Cell pellets were then photographed.
# [7] = PBPE 20 µM, tesmilifene 10 µM, umbelliprenin 40 µM vs kojic acid 100 µM (Figure 6)
tyrosinase activity (Tyrosinase),expression of melanogenic genes [4],Structure (SMILES),melanin content [1],"diminution of melanin content compared with kojic acid [1, 7]",melanin content in presence of α-MSH [2],melanin content after UV-B irradiation [3],cell viability [5],diminution of melanin content compared with kojic acid ([1]; increasing doses of umbelliprenin vs 100µM kojic acid (Figure 1)),appearance of melanocytes (cell pellet) versus carrier solvent [6]
decrease tyrosinase activity levels,this effect was not observed,CCN(CC)CCOc1ccc(Cc2ccccc2)cc1 [tesmilifene],significantly decrease melanin content in a dose dependent manner,higher,inhibits the melanogenic effect of α-MSH,inhibits the melanogenic effect of UV-B,,,
decrease tyrosinase activity levels,significantly repressed,CC(C)=CCC/C(C)=C/CC/C(C)=C/COc1ccc2ccc(=O)oc2c1 [umbelliprenin],significantly decreases melanin content in a dose dependent manner,higher,inhibits the melanogenic effect of α-MSH,inhibits the melanogenic effect of UV-B,,higher,much lighter

Structure (SMILES),tyrosinase activity (Tyrosinase),expression of melanogenic genes [4],melanin content [1],"diminution of melanin content compared with kojic acid [1, 7]",melanin content in presence of α-MSH [2],melanin content after UV-B irradiation [3],cell viability [5],diminution of melanin content compared with kojic acid ([1]; increasing doses of umbelliprenin vs 100µM kojic acid (Figure 1)),appearance of melanocytes (cell pellet) versus carrier solvent [6]
c1ccc(Cc2ccc(OCCN3CCCC3)cc2)cc1 [PBPE],decrease tyrosinase activity levels,this effect was not observed,significantly decrease melanin content in a dose dependent manner,higher,inhibits the melanogenic effect of α-MSH,inhibits the melanogenic effect of UV-B,no significant impact,,
